Data: patent publication US10500207B2, “Compounds for the treatment of diseases associated with amyloid or amyloid-like proteins” (AC Immune SA, priority 2010, dated 2019)

Target: Aβ1-42 peptide (Homo sapiens, UniProt P05067)
Assay: Thioflavin T spectrofluorescence assay (ThT-assay): inhibition of Aβ1-42 aggregation (% inhibition at 330 μM; IC50 from dilution series)
Details: 24 h, read-out: Inhibition at 330 μM [%], ThT assay; 330 μM small molecule, 33 μM Aβ1-42 (10:1), 24 hrs at 37° C.; mean ± standard deviation of two independent experiments
Description: Aβ1-42 lyophilized powder (Bachem) was reconstituted in hexafluoroisopropanol (HFIP) to 1 mM. The peptide solution was sonicated for 15 min at room temperature, agitated overnight, and aliquots were made into non-siliconized microcentrifuge tubes. The HFIP was then evaporated under a stream of argon. The resulting peptide film was dried under vacuum for 10 min, tightly sealed and stored at −80° C. until used.
A positive control without a small molecule was prepared to measure maximum RFU. A negative control without Aβ1-42 was prepared for each small molecule. […] The solutions were then incubated for 24 hrs at 37° C., and the spectrofluorescence (relative fluorescence units; RFU) were read in six replicates in black 384-well assay plates (Perkin-Elmer) on a Perkin-Elmer FluoroCount spectrofluorometer. The inhibition of aggregation is expressed as mean % inhibition±1 standard deviation (SD) according to the following equation:
Racemic compounds and their enantiomers were tested for their ability to inhibit amyloid peptide aggregation using the ThT assay. To determine the IC50, the following dilutions of the compounds were used in the ThT assay described above:

Chain of Aβ1-42 peptide (P05067 672-713 limits assumed): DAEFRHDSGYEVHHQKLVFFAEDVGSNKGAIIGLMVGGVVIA

SMILES | inhibition at 330 µM [%]
Cn1c2c(c3ccc(Nc4ccc5c(c4)OCCO5)nc31)CCC2 [Example 173] | 90.1 ± 2.3
CN1CCc2ccc(Nc3ccc4c5c(n(C)c4n3)CCC5)cc2C1 [Example 174] | 87.2 ± 1.3
Cn1c2c(c3cc(Nc4ccc(F)c(F)c4)ccc31)CS(=O)(=O)CC2 [Example 176] | 41.5 ± 3.6
Cn1cnc2ccc(Nc3ccc4c(c3)c3c(n4C)CCS(=O)(=O)C3)cc21 [Example 181] | 6.6 ± 4.3
c1ccc(Nc2ccc3c(c2)OCO3)cc1 [Example 185] | 55.2 ± 6
Fc1ccc(Nc2ccc3c(c2)OCO3)cc1F [Example 186] | 66.5 ± 2.4
c1cc(N2CCOCC2)ccc1Nc1ccc2c(c1)OCO2 [Example 188] | 83.3 ± 6
CN1CCN(C(=O)c2ccc(Nc3ccc(F)cc3)cc2)CC1 [Example 189] | 12.6 ± 5.5
COC1CCc2c(c3ccc(Nc4ccc(F)cc4)cc3n2C)C1 (stereo not drawn) [Example 191] | 89.7 ± 1.4
CN1CCC(c2c[nH]c3cc(Nc4ccc5c(c4)OCCN5C)ccc23)CC1 [Example 194] | 106.1 ± 0.3
CCOC(=O)N1CCc2c(c3cc(Nc4ccc(F)c(F)c4)ccc3n2C)C1 [Example 199] | 68.6 ± 0.5
CN1CCC(c2c[nH]c3cc(Nc4ccc5ncn(C)c5c4)ccc23)CC1 [Example 200] | 67.4 ± 3.4
CC(C)OC1CCc2c(c3ccc(Nc4ccc5c(c4)OCCO5)nc3n2C)C1 (stereo not drawn) [Example 203] | 93.4 ± 3.5
COC1CCc2c(c3ccc(Nc4ccc(F)c(F)c4)nc3n2C)C1 (stereo not drawn) [Example 204] | 93.5 ± 0.4
COC1CCc2c(c3ccc(Nc4ccc5c(c4)OCO5)nc3n2C)C1 (stereo not drawn) [Example 205] | 91.7 ± 0.1
CN1CCc2c(c3cc(Nc4ccc(F)c(F)c4)ccc3n2C)C1 [Example 206] | 94.5 ± 0.7
Cn1c2c(c3ccc(Nc4ccc5c(c4)OCCO5)cc31)CN(CCCCS(C)(=O)=O)CC2 [Example 207] | 75.6 ± 13.4
Cn1c2c(c3cc(Nc4ccc(F)c(F)c4)ccc31)CN(CCCCS(C)(=O)=O)CC2 [Example 208] | 85 ± 3.3
Cn1c2c(c3ccc(Nc4ccc(F)c(F)c4)cc31)CN(CCCCS(C)(=O)=O)CC2 [Example 210] | 43.2 ± 12.9

Second part, the compound after the results:

inhibition at 330 µM [%] | SMILES
75.5 ± 7.8 | Cn1cnc2ccc(Nc3ccc4c5c(n(C)c4n3)CCC5)cc21 [Example 175]
29.6 ± 6.2 | Cn1c2c(c3cc(Nc4ccc5c(c4)OCCO5)ccc31)CS(=O)(=O)CC2 [Example 177]
35.4 ± 5.9 | COc1cc(Nc2ccc3c(c2)c2c(n3C)CCS(=O)(=O)C2)ccc1C [Example 178]
30.2 ± 0.9 | Cn1c2c(c3cc(Nc4ccc(C(F)(F)F)nc4)ccc31)CS(=O)(=O)CC2 [Example 179]
50.2 ± 0.9 | CN1CCc2ccc(Nc3ccc4c(c3)c3c(n4C)CCS(=O)(=O)C3)cc2C1 [Example 180]
66.1 ± 6.9 | CN1CCN(c2ccc(Nc3ccc4c(c3)c3c(n4C)CCS(=O)(=O)C3)cc2)CC1 [Example 182]
42.3 ± 3.1 | Cn1c2c(c3cc(Nc4ccc(F)nc4)ccc31)CS(=O)(=O)CC2 [Example 183]
41.3 ± 1.1 | Cn1c2c(c3cc(Nc4ccc(N5CCOCC5)cc4)ccc31)CS(=O)(=O)CC2 [Example 184]
82.2 ± 6 | c1cc2c(cc1Nc1ccc3c(c1)OCO3)OCO2 [Example 187]
20.1 ± 4.6 | CN1CCN(C(=O)c2ccc(Nc3ccc4c(c3)OCO4)cc2)CC1 [Example 190]
54.3 ± 3.4 | COC1CCc2c(c3ccc(Nc4ccc(N5CCOCC5)cc4)nc3n2C)C1 (stereo not drawn) [Example 193]
89.7 ± 2.4 | CN1CCC(c2c[nH]c3cc(Nc4ccc(F)cc4)ccc23)CC1 [Example 195]
80 ± 4.6 | CN1CCC(c2c[nH]c3cc(Nc4ccc5c(C6CCN(C)CC6)cn(C)c5n4)ccc23)CC1 [Example 196]
92.1 ± 0.3 | COC1CCc2c(c3ccc(Nc4ccc5c(c4)OCCO5)nc3n2C)C1 (stereo not drawn) [Example 198]
93.3 ± 0.1 | CN1CCc2ccc(Nc3ccc4c5c(n(C)c4n3)CCCC5)cc2C1 [Example 201]
86.1 ± 1.6 | Cn1c2c(c3ccc(Nc4ccc5c(c4)OCCO5)cc31)CNCC2 [Example 202]
66.2 ± 6.5 | Cn1c2c(c3cc(Nc4ccc5c(c4)OCCO5)ccc31)CN(CCCCS(C)(=O)=O)CC2 [Example 209]
